In experiment [1] the target is Histone deacetylase 4/Myocyte-specific enhancer factor 2D (Homo sapiens, UniProt P56524+Q14814). Description: Inhibitory Effects of the Compounds on MEF2D and HDAC4 Protein Interactions: Detection of MEF2D and HDAC4 interactions. In this mammalian two-hybrid assay, HDAC4 and MEF2D proteins were used. […] Human epithelial carcinoma cells (HeLa) were co-transfected with the two DNA constructs (GAL4-MEF2D and HDAC4-VP16) and a reporter plasmid (Gal4Luc). […] MEF2D and HDAC4 protein interactions were detected as a result of the GAL4-MEF2D and HDAC4-VP16 protein complex binding a DNA promoter on the reporter plasmid (Gal4Luc) and driving cellular expression of a luciferase gene. The measured luciferase protein signal was proportional to the amount of MEF2D and HDAC4 protein interactions occurring with the cell.
Chain of Histone deacetylase 4/Myocyte-specific enhancer factor 2D (P56524 whole entry, the tested form may be a part): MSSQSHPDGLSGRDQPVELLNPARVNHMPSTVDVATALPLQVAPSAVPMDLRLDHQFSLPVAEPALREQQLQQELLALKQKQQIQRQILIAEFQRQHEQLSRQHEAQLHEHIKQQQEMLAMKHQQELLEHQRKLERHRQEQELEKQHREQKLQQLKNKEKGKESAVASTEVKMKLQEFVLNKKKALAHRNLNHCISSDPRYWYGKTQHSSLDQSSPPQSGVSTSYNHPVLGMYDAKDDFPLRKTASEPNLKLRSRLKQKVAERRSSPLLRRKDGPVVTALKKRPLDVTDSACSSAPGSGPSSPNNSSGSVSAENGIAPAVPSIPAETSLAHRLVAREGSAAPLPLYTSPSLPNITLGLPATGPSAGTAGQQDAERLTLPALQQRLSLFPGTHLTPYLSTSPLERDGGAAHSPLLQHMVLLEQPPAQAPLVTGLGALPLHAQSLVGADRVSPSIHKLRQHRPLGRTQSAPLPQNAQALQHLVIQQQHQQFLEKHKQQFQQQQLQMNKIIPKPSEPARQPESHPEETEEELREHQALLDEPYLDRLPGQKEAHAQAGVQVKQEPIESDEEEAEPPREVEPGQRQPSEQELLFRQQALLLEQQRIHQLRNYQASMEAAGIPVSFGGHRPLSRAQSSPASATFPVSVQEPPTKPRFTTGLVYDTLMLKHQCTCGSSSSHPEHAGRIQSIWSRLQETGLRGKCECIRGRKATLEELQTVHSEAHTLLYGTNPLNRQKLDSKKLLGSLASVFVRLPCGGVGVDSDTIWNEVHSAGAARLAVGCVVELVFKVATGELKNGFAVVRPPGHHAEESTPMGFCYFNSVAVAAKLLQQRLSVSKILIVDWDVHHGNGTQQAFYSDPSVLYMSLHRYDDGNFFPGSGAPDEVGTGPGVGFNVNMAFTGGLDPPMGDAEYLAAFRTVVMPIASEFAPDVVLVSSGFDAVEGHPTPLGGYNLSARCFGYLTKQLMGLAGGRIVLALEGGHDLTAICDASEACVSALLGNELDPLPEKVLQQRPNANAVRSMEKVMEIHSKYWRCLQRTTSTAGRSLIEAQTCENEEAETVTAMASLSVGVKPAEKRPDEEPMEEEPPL
Chain of Histone deacetylase 4/Myocyte-specific enhancer factor 2D (Q14814 whole entry, the tested form may be a part): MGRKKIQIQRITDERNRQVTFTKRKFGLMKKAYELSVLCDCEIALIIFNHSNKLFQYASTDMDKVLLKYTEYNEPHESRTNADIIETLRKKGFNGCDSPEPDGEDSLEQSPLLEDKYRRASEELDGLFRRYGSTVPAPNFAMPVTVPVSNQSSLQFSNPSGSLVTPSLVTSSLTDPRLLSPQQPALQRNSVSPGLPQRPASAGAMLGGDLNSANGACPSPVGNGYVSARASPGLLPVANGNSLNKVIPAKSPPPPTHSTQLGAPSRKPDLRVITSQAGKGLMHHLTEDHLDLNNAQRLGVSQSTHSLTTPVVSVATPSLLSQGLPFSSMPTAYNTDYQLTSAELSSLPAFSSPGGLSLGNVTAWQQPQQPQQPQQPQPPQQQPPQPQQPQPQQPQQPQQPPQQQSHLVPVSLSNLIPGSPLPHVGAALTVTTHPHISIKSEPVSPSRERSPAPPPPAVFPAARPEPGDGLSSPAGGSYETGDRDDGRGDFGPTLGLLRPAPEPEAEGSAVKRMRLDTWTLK

Experiment [2] deals with Histone acetyltransferase p300/Myocyte-specific enhancer factor 2D (Homo sapiens, UniProt Q09472+Q14814). Description: Inhibitory Effects of the Compounds on MEF2D and P300 Protein Interactions: Detection of MEF2D and P300 interactions. The same system that was used in Example 19 is used in here to detect MEF2D and P300 interactions. In this assay, two separate DNA constructs were made with MEF2D fused with the GAL4 DNA binding domain (GAL4-MEF2D) and P300 fused with the viral transactivator VP-16 […] epithelial carcinoma cells (HeLa) were co-transfected with the two DNA constructs (GAL4-MEF2D and P300-VP16) and a reporter plasmid (Gal4Luc). […] MEF2D and P300 protein interactions were detected as a result of the GAL4-MEF2D and P300-VP16 protein complex binding a DNA promoter on the reporter plasmid (Gal4Luc) and driving cellular expression of a luciferase gene. The measured luciferase protein signal was proportional to the amount of MEF2D and P300 protein interactions occurring with the cell.
Chain of Histone acetyltransferase p300/Myocyte-specific enhancer factor 2D (Q09472 whole entry, the tested form may be a part): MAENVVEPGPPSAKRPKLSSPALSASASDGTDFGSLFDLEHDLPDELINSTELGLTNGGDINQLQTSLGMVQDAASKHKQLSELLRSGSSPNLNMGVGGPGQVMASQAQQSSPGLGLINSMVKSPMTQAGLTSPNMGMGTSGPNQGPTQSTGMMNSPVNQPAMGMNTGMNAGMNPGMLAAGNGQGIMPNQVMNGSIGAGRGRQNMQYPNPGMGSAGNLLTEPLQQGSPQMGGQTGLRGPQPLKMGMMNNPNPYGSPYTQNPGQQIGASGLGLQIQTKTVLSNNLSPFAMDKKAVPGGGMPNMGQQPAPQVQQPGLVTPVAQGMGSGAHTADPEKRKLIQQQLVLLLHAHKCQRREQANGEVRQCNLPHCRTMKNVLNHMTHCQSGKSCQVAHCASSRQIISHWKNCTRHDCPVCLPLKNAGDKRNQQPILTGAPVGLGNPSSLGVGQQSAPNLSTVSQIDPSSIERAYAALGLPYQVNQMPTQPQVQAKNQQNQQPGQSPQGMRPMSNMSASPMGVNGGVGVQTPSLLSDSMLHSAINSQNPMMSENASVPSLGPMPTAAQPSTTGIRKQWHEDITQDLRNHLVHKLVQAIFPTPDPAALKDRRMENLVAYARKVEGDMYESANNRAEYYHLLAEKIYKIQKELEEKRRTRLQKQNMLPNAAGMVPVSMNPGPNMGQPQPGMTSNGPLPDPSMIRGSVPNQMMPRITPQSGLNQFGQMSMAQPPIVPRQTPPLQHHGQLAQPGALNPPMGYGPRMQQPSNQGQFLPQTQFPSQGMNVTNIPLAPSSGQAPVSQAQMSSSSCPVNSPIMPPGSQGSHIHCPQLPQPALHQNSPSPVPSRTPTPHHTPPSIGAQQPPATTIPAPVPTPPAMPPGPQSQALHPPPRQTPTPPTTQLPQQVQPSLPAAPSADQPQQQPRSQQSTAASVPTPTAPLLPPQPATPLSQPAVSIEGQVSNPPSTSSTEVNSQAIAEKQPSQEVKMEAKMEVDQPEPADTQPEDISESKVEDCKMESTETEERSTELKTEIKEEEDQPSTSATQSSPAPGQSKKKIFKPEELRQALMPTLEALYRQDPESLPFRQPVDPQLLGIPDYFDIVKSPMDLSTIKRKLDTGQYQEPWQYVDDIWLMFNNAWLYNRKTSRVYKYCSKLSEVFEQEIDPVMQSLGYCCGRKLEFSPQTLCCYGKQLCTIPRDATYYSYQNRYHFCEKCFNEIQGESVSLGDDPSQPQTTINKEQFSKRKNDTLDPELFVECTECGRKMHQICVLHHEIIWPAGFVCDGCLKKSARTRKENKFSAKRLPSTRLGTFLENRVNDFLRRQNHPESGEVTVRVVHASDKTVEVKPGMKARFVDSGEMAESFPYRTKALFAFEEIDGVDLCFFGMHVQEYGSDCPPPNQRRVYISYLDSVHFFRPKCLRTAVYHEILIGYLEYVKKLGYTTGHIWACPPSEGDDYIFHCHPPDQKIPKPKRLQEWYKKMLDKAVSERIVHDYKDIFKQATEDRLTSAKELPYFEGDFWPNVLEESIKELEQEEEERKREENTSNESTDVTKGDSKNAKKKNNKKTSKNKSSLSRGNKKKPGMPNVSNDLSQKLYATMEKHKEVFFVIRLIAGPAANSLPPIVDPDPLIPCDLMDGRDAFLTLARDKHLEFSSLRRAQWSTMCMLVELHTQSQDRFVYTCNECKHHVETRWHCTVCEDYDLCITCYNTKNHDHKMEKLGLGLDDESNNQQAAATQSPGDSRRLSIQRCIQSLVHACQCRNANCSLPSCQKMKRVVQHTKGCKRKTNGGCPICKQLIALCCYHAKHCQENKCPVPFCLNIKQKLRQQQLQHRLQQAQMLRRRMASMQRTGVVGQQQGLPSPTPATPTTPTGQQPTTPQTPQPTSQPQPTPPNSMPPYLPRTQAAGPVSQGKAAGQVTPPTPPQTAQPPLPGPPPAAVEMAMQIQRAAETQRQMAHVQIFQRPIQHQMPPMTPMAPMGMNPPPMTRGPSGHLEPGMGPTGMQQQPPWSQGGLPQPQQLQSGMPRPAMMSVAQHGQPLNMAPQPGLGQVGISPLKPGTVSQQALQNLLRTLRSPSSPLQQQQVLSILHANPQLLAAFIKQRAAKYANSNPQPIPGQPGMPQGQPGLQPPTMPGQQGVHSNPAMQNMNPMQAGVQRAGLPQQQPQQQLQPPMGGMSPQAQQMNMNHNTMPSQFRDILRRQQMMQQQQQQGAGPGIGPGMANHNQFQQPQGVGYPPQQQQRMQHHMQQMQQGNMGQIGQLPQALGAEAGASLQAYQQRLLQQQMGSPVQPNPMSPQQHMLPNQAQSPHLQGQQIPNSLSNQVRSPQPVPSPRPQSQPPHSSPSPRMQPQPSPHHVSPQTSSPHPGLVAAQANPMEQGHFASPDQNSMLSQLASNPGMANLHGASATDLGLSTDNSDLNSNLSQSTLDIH
Chain of Histone acetyltransferase p300/Myocyte-specific enhancer factor 2D (Q14814 whole entry, the tested form may be a part): as the sequence (Q14814 whole entry, the tested form may be a part) above

Molecules are shown by their SMILES.

On to `Nc1ccccc1NC(=O)/C=C/c1cccc(CNc2ccc3ccccc3c2)c1`, for which the half-inhibitory concentration (IC50) in experiment [1] was found to be 7270 nM; in experiment [2], 720 nM.

As for `Cc1[nH]c2ccccc2c1CCNCc1cccc(/C=C/C(=O)Nc2ccccc2N)c1`, the IC50 was determined as 510 nM in experiment [1] and 270 nM in experiment [2].

For `Nc1ccccc1NC(=O)CCCCC(NC(=O)c1ccccc1)C(=O)Nc1ccccc1` (stereo unspecified), the concentration for half-maximal inhibition (IC50) was found to be 800 nM in experiment [1] and 700 nM in experiment [2].

The term IC50 denotes the concentration that inhibits the measured activity by half.
